US20260240683A1, “MOLECULAR LINKERS” (CWAN TECHNOLOGIES PTY LTD, priority 2023, published 2026)

Experiments:
[1] = Riboflavin solubility at 0.1% in PBS; type: physicochemical
[2] = Diffusion into thermally gelled 12% gelatin gel disc (A452 read-out), model corneal stroma; type: physicochemical
Protocol: A 12% Gelatin (Sigma G1890) Type A, 300 Bloom solution was prepared in PBS (pH7.4) by melting at 50° C. 60 μL was added to an 8.5 mm (diameter)×1 mm (deep) round Teflon mould. The Gelatin was allowed to set thermally for 10 min at 18.5° C. At 10 min, 60 μL 0.5 mM Ru(bpy)3 (0.5 mM solution in PBS) is added to the top of the thermally gelled 12% gelatin disc. The gelatin disc was covered with foil during diffusion time. Excess solution was blotted from the top of the gel using a Kimwipe. Remove gelled disc using spatula, add to 940 μL of PBS @55° C. Melt gel (30 sec)—add solution to cuvette, read A452.
If diffusion is expressed as a percentage of the total disc volume equilibrated with the applied 0.5 mM Ru(bpy)3 solution, then, assuming total mixing of the applied 60 μL solution with the 60 μL gelatin disc, 100% diffusion would represent an A452 of 0.205 [0.221−0.016=gelatin−PBS blank)]. So, diffusion to 30% of the hydrogel depth/thickness (in this case representing ca. 300 μm) would be attained in about 2.3 min. This is the desired depth of penetration of a crosslinking agent in the human cornea (by comparison with Riboflavin-based CXL methods, which require 30 minutes of diffusion).

[3] = Diffusion of Ru(bpy)3+SPS and photochemical crosslinking of 1 mm 12% gelatin hydrogel (weight after 65° C. melt); type: physicochemical
Protocol: Method: 12% Gelatin (Sigma G1890) Type A 300 Bloom in PBS (pH 7.4), was melted at 50° C. and 60 μL added to an 8.5 mm (diameter) disc×1 mm (deep) Teflon mould. The gelatin was allowed to set thermally for 10 min at 18.5° C. 60 μL of Ru(bpy)3/SPS solution (either a 0.5 mM Ru(bpy)3+50 mM SPS; a 1.0 mM Ru(bpy)3+50 mM SPS or a 2.0 mM Ru(bpy)3+50 mM SPS) was added and allowed to diffuse into the gel disc for varying times (0, 2, 4, 6, 8, 10, 14 min). Excess liquid was blotted from the top surface of the mould. At the end point of the diffusion period, the thermally set gelatin hydrogel was illuminated using a 3M ESPE blue LED lamp (1,200 mW/cm^2) for 5 sec at 1 cm distance from the light guide tip. The crosslinked gelatin hydrogel was weighed on a microbalance before being placed into a 65° C. water bath for 30 sec. Excess liquid was removed from the crosslinked hydrogel and it was again weighed to measure residual crosslinked gelatin hydrogel. A plot was prepared showing % crosslinked gelatin vs diffusion time (zero to 14 min).
Aim: To determine the time required for a solution containing Ru(bpy)3+SPS to diffuse through a 1 mm thick sheet of thermally-gelled gelatin and then to form covalent crosslinks between gelatin molecules, thus rendering the hydrogel resistant to subsequent melting at high temperature. […]

[4] = Ru(bpy)3 diffusion through debrided bovine cadaver corneal stroma; type: in vitro ADME; settings: PBS solution containing 0.5 mM Ru(bpy)3; 800 μm thick bovine cadaver corneal stroma; within 6 minutes
Protocol: 10 fresh bull eyes were obtained from an abattoir (<10 hours old, stored at 4° C.). Using a digital caliper, the thickness of the corneas was determined to be within the range of 740 μm to 820 μm. The epithelium of the eyes was debrided with an 8 mm biopsy punch and scraped-off with a scalpel blade.
[…] Excess Ru(bpy)3 solution was removed by blotting using a fresh Kimwipe tissue.
Corneas were frozen on the surface of an aluminium block at −20° C. for 2 minutes (FIG. 7B). Transverse (bisecting) cross-sections of cornea were prepared by cutting a 1 mm thick section using a razor blade. The corneal cross-section was mounted on a glass slide to allow visualization of the cross-sectional area of the corneal stroma (FIG. 7C). Ru(bpy)3 was visualized through a red filter with illumination with a 450 nm LED light (FIG. 7).
The rate of diffusion of Ru(bpy)3 through both fresh bovine cadaver corneal stroma and through a thermally gelled 12% gelatin hydrogel (as a model corneal stromal matrix), was studied.

[5] = Photochemical crosslinking of corneal stroma using 3D template mould; set-up: species or system bovine; settings: 300 μL, 10 min diffusion, 20 sec 450 nm blue LED at 1 cm; 1 mM Ru(bpy)3 with or without 50 mM SPS
Protocol: The entire epithelium was debrided from a cornea. 300 μL of 1 mM Ru(bpy)3+50 mM SPS was applied to the anterior corneal surface for a diffusion time of 10 minutes (FIG. 9A). The cornea was wrapped over a metal piping nozzle, acting as a mould, and irradiated for 20 seconds using 450 nm blue LED dental lamp at a distance of 1 cm from the light guide tip (FIG. 9B).
A cornea was subject to the crosslinking protocol described in Example 3A, except that sodium persulphate (SPS) was omitted. […] In its absence, singlet oxygen radical production by short (20 sec) blue light irradiation of Ru(bpy)3 in aqueous solution is insufficient to cause any measurable covalent crosslinking of endogenous stromal proteins. In contrast, in its presence, crosslinking of endogenous corneal proteins and “molecular linkers” occurs rapidly and quantitatively.

SMILES | solubility at 0.1% (2.6 mM) ([1]; PBS (pH 7.4)) | solubility at 0.1% (2.6 mM) ([1]; PBS with NaOH added, pH ca. 8.5, RT) | rate of diffusion through 12% gelatin hydrogel compared with 0.5 mM Ru(bpy)3 solution ([2]; Riboflavin 0.1% (2.6 mM)) | time to diffuse through the entire 1.0 mm thickness of 12% (w/v) gelatin hydrogel ([3]; Ru(bpy)3+50 mM SPS solutions (0.5, 1.0, 2.0 mM)) [min] | covalent crosslinking of gelatin hydrogel after the diffusion step ([3]; Ru(bpy)3+SPS, 5 second illumination with 450 nm blue LED lamp) | time to diffuse to 30% of the hydrogel depth/thickness (ca. 300 μm) ([2]; 0.5 mM Ru(bpy)3 in PBS, 60 μL on 1 mm deep 12% gelatin disc) | depth of free diffusion through corneal stroma [4] [μm] | formation of templated 3D structure of cornea after photo-crosslinking on mould [5]
Cc1cc2nc3c(=O)[nH]c(=O)nc-3n(C[C@H](O)[C@H](O)[C@H](O)CO)c2cc1C [Riboflavin, riboflavin] | =2.6 mM in PBS (pH 7.4) - not fully soluble in PBS* | *Added 1 μL of 10N NaOH to 2 ml of 0.1% solution in PBS - took pH to ca. 8.5 (by pH paper test). Riboflavin solution was now fully soluble at 0.1% (2.6 mM) at RT. | slightly slower | – | – | – | – | –
[Cl-].[Cl-].[Ru+2].c1ccc(-c2ccccn2)nc1.c1ccc(-c2ccccn2)nc1.c1ccc(-c2ccccn2)nc1 [Ru(bpy)3, ruthenium (tris)bipyridyl chloride] | – | – | – | ≤ 6 | entire gelatin hydrogel can be covalently crosslinked | about 2.3 min | 400 | no mould template structure was formed
